In patent US7482378B2, “Physiological cooling compositions” (Millenium Specialty Chemicals, Inc., priority 2004, dated 2009) one finds Relative cooling strength and melting point data, which are given here for eight compounds.

As a reminder, the melting point is the temperature, or range, at which the solid turns liquid.

The nature of series [1]: Relative cooling strength of individual coolants, organoleptic sequential dilution method versus standard 10 ppm WS-3 solution in water. In kind it is in vivo. To be noted: relative to 10 ppm WS-3 in water assigned 10.0; values accepted in the art and confirmed by expert evaluation. From the text: The aqueous solutions of products for organoleptic tests were obtained by dissolving appropriate amounts of the products in propylene glycol PG and adding the PG solution to an appropriate amount of water.
A. Cooling strength values for individual coolants. Cooling strength values used in this invention for individual coolants were those generally accepted in the art and also additionally confirmed using expert evaluations conducted by Millennium Specialty Chemicals personnel on the basis of a sequential dilution method, i.e., a controlled dilution of samples to the concentration where their strength is about equal to the standard solution of WS-3. For purposes of Examples 55-60, a 10 ppm solution of WS-3 in water was used as the standard solution and was assigned a standardized cooling strength value of 10.0. The corresponding relative cooling strengths for the individual cooling agents were then assigned based upon an organoleptic determination of the approximate concentration of cooling agent that was required to provide about the same cooling strength as the standardized 10 ppm solution of WS-3.

For the compound `CC(C)[C@@H]1CC[C@@H](C)C[C@H]1OC(=O)CCCC(=O)O` [MMG, monomenthyl glutarate], the Relative cooling strength entry in series [1] is listed as “about 3.5”.

On to `CC1CCC(C(C)C)C(OC(=O)C(C)O)C1` (stereo not drawn) [Menthyl Lactate, l-Menthyl ester of lactic acid], for which the Relative cooling strength entry in series [1] is recorded as “about 2.9”.

The compound `CNC(=O)C1C(C)CCCC1(C)C` (stereo not shown) [N,2,2,6-Tetramethylcyclohexane-1-carboxamide] came in with a melting point of 146 to 148 °C. Moreover, the Relative cooling strength result in series [1] is given as “about 1.0”.

`CCNC(=O)[C@@H]1C[C@H](C)CC[C@H]1C(C)C` [WS-3, N-ethyl-3-p-menthane carboxamide] gave a Relative cooling strength in series [1] of 10.0.

In the case of `CCOC(=O)CNC(=O)C1CC(C)CCC1C(C)C` (stereo not shown) [WS-5, N-(ethoxycarbonylmethyl)-3-p-menthane carboxamide], the Relative cooling strength entry in series [1] is given as “about 16.7”.

Turning to `CC(C)[C@@H]1CC[C@@H](C)C[C@H]1C(=O)NC(C)(C)C` [WS-14, N-tert-butyl-3-p-menthane carboxamide], the melting point lay in the range of 147 to 150 °C. For the same compound, the Relative cooling strength result in series [1] was “about 5.0”.

On to `CNC(=O)C(C)(C(C)C)C(C)C` [WS-23, N,2,3-trimethyl-2-isopropyl butanamide], for which the Relative cooling strength entry in series [1] is listed as “about 5.0”.

For “Glyceryl ether of p-menthane-3-carboxylic acid [WS-30]”, the Relative cooling strength result in series [1] was “about 1.5”.
